In publication PMC7883873, “Discovery of New Catalytic Topoisomerase II Inhibitors for Anticancer Therapeutics” (Frontiers in Oncology, 2021):

What was measured:
TOP2B = TOP2B (Homo sapiens, UniProt Q02880); experiment: DNA relaxation assay (supercoiled pHOT-1 plasmid); assay type: biochemical; design: full-length human TOP2A and TOP2B protein (TopoGEN and Inspiralis respectively); purchased Inspiralis HTB205; settings: densitometry of SC bands; read-out: IC50, inhibition of TOP2B plasmid DNA relaxation
Protocol: The human TOP2A and TOP2B were used to perform DNA relaxation assays. […] The reaction was incubated at 37C for 2 h and stopped by adding 2 µl of 10% SDS and 1 µl of 250 mM of EDTA, followed by the addition of 50 µg/ml of proteinase K at 45 C for 1 h. The reaction was then resolved by electrophoresis on a 1% agarose gel at 80 V and stained with 0.5 µg/ml ethidium bromide for 15 min. DNA bands were visualized using a gel imager (Gel Doc™ EZ System) and quantified using the Image Studio™ Lite Quantification Software.

AR-v7 = experiment: Probasin- and PSA-luciferase reporter in 293T cells; assay type: cell-based; settings: 0-20 µM
HeLa cells = experiment: LDH cytotoxicity assay; assay type: cell-based; settings: 0–20 µM, 48 h
Protocol: Cell proliferation rates were measured by using the CellTitre 96 AqueousOne kit (Promega) and bromodeoxyuridine (BrdU) assay kit (Millipore) according to the manufacturer’s protocol as we have described ([51]). Cytotoxicity was evaluated by using the commercial kit (CAT# 8078, ThermoFisher). Culture media was collected and used to measure lactate dehydrogenase (LDH) levels by a colorimetric method following the manufacture’s protocol (ThermoFisher). Cell cycling was assessed by using BrdU incorporation into S-phase DNA by using the APC BrdU flow kit (BD Pharmingen; Franklin Lakes, New Jersey) according to the manufacturer’s protocol. 1 mM of BrdU was added to cells and incubated for 6 h. Cells were incubated with anti-BrdU antibody and stained with 7-AAD before processing the cells for flow cytometry ([52]). Immunoblotting assays followed the standard protocol as we have reported ([51]–[53]).

Chain of TOP2B (Q02880 whole entry): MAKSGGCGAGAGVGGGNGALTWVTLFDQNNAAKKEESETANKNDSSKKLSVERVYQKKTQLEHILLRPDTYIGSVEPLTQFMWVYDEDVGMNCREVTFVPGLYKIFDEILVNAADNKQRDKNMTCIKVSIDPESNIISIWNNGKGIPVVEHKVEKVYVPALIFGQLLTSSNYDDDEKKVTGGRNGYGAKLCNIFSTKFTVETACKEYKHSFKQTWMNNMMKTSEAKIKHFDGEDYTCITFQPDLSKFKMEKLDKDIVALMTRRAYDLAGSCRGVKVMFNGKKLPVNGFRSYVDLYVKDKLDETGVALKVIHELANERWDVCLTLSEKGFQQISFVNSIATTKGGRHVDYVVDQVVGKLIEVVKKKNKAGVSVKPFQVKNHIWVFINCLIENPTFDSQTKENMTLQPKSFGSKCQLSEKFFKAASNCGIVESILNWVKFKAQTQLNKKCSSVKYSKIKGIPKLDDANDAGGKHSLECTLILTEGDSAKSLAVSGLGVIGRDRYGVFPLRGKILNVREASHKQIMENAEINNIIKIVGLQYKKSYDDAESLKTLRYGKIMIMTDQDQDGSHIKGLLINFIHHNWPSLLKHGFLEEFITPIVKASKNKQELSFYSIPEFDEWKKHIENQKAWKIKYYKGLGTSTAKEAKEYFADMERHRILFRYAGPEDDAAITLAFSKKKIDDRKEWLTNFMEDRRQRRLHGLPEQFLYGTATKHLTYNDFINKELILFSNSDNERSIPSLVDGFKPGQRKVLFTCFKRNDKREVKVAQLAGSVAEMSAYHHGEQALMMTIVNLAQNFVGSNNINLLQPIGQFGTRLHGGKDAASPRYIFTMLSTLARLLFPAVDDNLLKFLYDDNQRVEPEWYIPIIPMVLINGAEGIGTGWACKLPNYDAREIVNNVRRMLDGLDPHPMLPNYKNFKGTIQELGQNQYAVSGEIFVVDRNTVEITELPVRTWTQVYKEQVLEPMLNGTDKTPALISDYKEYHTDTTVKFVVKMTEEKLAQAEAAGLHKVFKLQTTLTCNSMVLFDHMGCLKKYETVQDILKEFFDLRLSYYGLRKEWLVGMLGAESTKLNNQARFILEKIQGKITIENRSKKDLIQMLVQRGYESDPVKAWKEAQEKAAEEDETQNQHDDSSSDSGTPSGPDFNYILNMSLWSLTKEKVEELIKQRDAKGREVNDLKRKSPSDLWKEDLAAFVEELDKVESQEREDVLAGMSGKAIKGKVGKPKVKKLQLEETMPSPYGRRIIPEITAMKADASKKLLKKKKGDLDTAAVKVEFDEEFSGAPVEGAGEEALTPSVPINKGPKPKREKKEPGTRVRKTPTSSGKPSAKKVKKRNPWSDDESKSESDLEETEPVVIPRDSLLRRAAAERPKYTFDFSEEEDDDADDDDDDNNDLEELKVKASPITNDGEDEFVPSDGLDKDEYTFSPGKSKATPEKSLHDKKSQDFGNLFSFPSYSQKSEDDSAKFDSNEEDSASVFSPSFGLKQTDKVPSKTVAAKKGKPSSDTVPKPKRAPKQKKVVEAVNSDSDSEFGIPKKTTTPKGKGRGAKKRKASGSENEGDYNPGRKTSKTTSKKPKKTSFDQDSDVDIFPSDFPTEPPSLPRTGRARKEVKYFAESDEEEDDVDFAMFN

## O=C(Nc1ccc(Nc2ccccc2)cc1)c1ccc[nH]c1=S [T60]
TOP2B
  IC50: ~8.9 µM
AR-v7
  Luciferase activities driven by probasin and PSA promoters, AR-v7: inhibited luciferase activities
HeLa cells
  Cytotoxicity (LDH release): low cytotoxicity
